Tests used:
[1] = Thermal decomposition temperature by thermogravimetric-differential thermal analyzer TG/DTA 6200; assay type: physicochemical
Description: A thermal decomposition temperature of bis-4,4′-(2-ethoxycarbonyl-1-ethenyl)-2,2′-methoxyphenoxymethane prepared in Example 1 was determined by using a thermogravimetric-differential thermal simultaneous analyzer “TG/DTA 6200” (commercially available from Seiko Instruments Inc.).
A thermal decomposition temperature of bis-4,4′-(2-2-ethyl-1-hexyloxycarbonyl-1-ethenyl)-2,2′-methoxyphenoxymethane prepared in Example 9 was determined by using a thermogravimetric-differential thermal simultaneous analyzer “TG/DTA 6200” (commercially available from Seiko Instruments Inc.).
A thermal decomposition temperature of bis-4,4′-(2-dodecyloxycarbonyl-1-ethenyl)-2,2′-methoxyphenoxymethane prepared in Example 10 was determined by using a thermogravimetric-differential thermal simultaneous analyzer “TG/DTA 6200” (commercially available from Seiko Instruments Inc.).

[2] = related art statement; cited from earlier work

Row | thermal decomposition point [1] [°C] | Structure (SMILES) | decomposition temperature [2] [°C]
1 | 355 | CCCCC(CC)COC(=O)C=Cc1ccc(OCOc2ccc(C=CC(=O)OCC(CC)CCCC)cc2OC)c(OC)c1 (stereo not shown) [Example 9, Bis-4,4′-(2-2-ethyl-1-hexyloxycarbonyl-1-ethenyl)-2,2′-methoxyphenoxymethane] | 
2 | 318 | CCCCCCCCCCCCOC(=O)C=Cc1ccc(OCOc2ccc(C=CC(=O)OCCCCCCCCCCCC)cc2OC)c(OC)c1 [Example 10, Bis-4,4′-(2-dodecyloxycarbonyl-1-ethenyl)-2,2′-methoxyphenoxymethane] | 
3 |  | COc1cc(/C=C/C(=O)O)ccc1O [ferulic acid] | 176

Row | Structure (SMILES) | thermal decomposition point [1] [°C] | decomposition temperature [2] [°C]
4 | CCOC(=O)C=Cc1ccc(OCOc2ccc(C=CC(=O)OCC)cc2OC)c(OC)c1 [Example 1, Bis-4,4′-(2-ethoxycarbonyl-1-ethenyl)-2,2′-methoxyphenoxymethane] | 359 | 

From US6890520B2, “Thermally stable ferulic acid derivatives” (Wakayama Prefecture, priority 2003, dated 2005)
